Data taken from US10092540B2, “Method of treatment of a mucopolysaccharidosis” (INVENTIVA, priority 2013, dated 2018).

Legend:
male C57B16/J mice [1] = assay: Liver total sulfated GAG levels in tilorone-induced mucopolysaccharidosis mouse model; type: in vivo
Protocol: (§1) The effect of odiparcil on GAG storage was assessed in a model of mucopolysaccharidosis induced by Tilorone. Chronic administration of tilorone induces GAGs accumulation in various organs including liver, spleen, and kidney (Fischer et al. 1996, 315 (Pt 2):369-375; Prokopek 1991, 42:2187-2191). Tilorone (50 mg/kg/day) was administered via drinking water and odiparcil at 30 or 100 mg/kg/day (corresponding to 15 mg/kg and 50 mg/kg given bid, respectively) was given by oral gavage. Tilorone, odiparcil or vehicle were administered to male C57B16/J mice for 28 days.
At the end of the study period, animals were anesthetized and sacrificed. The liver of each animal was then collected, rinsed in physiological serum, blotted in absorbent paper and weighted. It was then cut in pieces and cooled by snap-freezing in liquid nitrogen before being stored at −80° C. The activity of odiparcil was assessed by quantifying total sulfated glycosaminoglycan (GAG) levels in the liver. Sulfated glycosaminoglycan concentration was measured using the Blyscan™ assay from Biocolor (UK) following the manufacturer's instructions. The data were statistically analyzed by one-way analysis of variance followed by a Tukey's test between all groups: ***: p<0.001 vs vehicle/vehicle, and $: p<0.05 vs tilorone/vehicle.

male C57B16/J mice [2] = assay: Urinary sulfated GAG levels in tilorone-induced mucopolysaccharidosis mouse model; type: in vivo
Protocol: as §1
After 21 days of treatment, urine were collected over a 24 hour period by placing the animal in diuresis/metabolic cages. The activity of odiparcil was assessed by quantifying total sulfated GAG levels in the collected urine. After a 10 to 20 fold dilution of the urine in water, sulfated glycosaminoglycan concentrations were measured using Blyscan™ assay from Biocolor (UK) following the manufacturer's instructions. Creatinine levels were also assessed on undiluted urine samples, using the CREATININE (Jaffé) kit (ref 981811) from ThermoFisher according to the manufacturer's instructions. Urinary sulfated GAG levels were normalized by creatinine levels. The data were analyzed statistically by one-way analysis of variance followed by a Tukey's test between all groups: ***: p<0.001 for vehicle/vehicle, and $$$: p<0.001 for tilorone/vehicle.

New Zealand Rabbits = assay: Plasma GAG level and disaccharide composition in rabbits after oral administration; type: in vivo, rabbit; conditions: 400 mg/kg oral
Protocol: Odiparcil was administered Orally to New Zealand Rabbits at the Dose of 400 mg/kg. 4 h after the administration, the animals were anesthetized and blood samples were taken on citrate tubes after catherization of the carotid artery. After centrifugation, the plasma was removed and frozen. The plasma GAGs were isolated after digestion of the proteins with Pronase E, for 48 h at 50° C. The proteins and the protein residues were precipitated by adding trichloroacetic acid and incubated overnight at 4° C. After centrifugation, the supernatants were collected, and then dialyzed against 100 volumes of phosphate buffer, for 48 h at 4° C. A solution of cetylpyridinium chloride (0.1% final concentration) was added to the dialysates in order to precipitate the GAGs, for 24 h at ambient temperature. The samples were then centrifuged and the supernatant was removed. The precipitate obtained was redissolved in 2M sodium chloride and the GAGs were precipitated with 5 volumes of 95% ethanol. After centrifugation, the alcoholic precipitates were redissolved in 0.9% sodium chloride and desalified on a Sephadex G25 column (PD10).
The plasma GAGs extracted were quantified by assaying the uronic acid content, modified Bitter and Muir carbazole method. The qualitative analysis of the plasma GAG extracts was carried out by HPLC of the disaccharides obtained after enzymatic digestion with chrondroitinase ABC from Proteus vulgaris and chrondroitinase AC from Arthrobacter aurescens.

[3] = tested on: GM00034B and GM01391 fibroblast cells, isolated from two MPS I patients; assay: CS, DS and HS content by UPLC MSMS in MPS I fibroblasts; type: cell-based, human; conditions: 10 μM, 72 h, FIG. 4
Protocol: (§2) Human dermal fibroblasts (GM00034B and GM01391 fibroblast cells, isolated from two MPS I patients and GM03181 and GM00615 fibroblasts isolated from two MPS II patients) were obtained from the Coriell Institute for Medical Research. Cells were cultured in T25-flask for 24 h. The culture medium was then replaced with culture medium containing or not containing (vehicle) odiparcil at 10 μM, and then the cells were incubated for 72 h. After incubation, culture media were discarded and the cells were rinsed with PBS, then scrapped in PBS. Cells were then collected by centrifugation and cell pellets were frozen until further analysis. Quantitation of Heparan sulfate (HS), Dermatan sulfate (DS) and Chondroitin sulfate (CS) were performed using UPLC MSMS using a method adapted from method published in Zhang et al. 2015. Glycosaminoglycan values are expressed as mean+SD in μg GAG species per milligram protein.

[4] = tested on: GM00034B fibroblast cells, isolated from an MPS I patient; assay: Intracellular chondroitin sulfate content (immunofluorescence) in fibroblasts from an MPS I patient; type: cell-based, human; conditions: 72 h
Protocol: (§3) Human dermal fibroblasts (GM00034B fibroblast cells, isolated from an MPS I patient and GM00031 fibroblast cells, isolated from an unaffected donor) were obtained from the Coriell Institute for Medical Research. Cells were cultured in 96-well plates for 24 h. The culture medium was then replaced with culture medium containing or not containing (vehicle) odiparcil at various concentrations (0.03, 0.1, 0.3, 1, 3, or 10 μM), and then the cells were incubated for 72 h. After incubation, culture media were discarded and the cells were rinsed with PBS, then fixed in PFA 4%. A part of the wells was then incubated for 2 hours at 37° C. with an enzymatic solution of chondroitinase ABC (CSase). After 2 hours of digestion with CSase ABC buffers were discarded, then the cells were rinsed with PBS and permeabilized with PBS-Triton 0.1%. The cells were then labeled using a primary anti-chondroitin sulfate antibody.

[5] = tested on: Bovine aortic endothelial cells (ECACC 92010601); assay: 35S-labeled GAG level in culture supernatant of bovine aortic endothelial cells; type: cell-based
Protocol: Bovine aortic endothelial cells (ECACC 92010601), cultured in 6-well plates, were incubated for 24 h in the presence of ^35S sodium sulfate (10 μci/ml) and of odiparcil solubilized in DMSO at various concentrations (1-10 μM; 0.1% final concentration of DMSO). The culture supernatants were recovered and the cell layers were rinsed with phosphate buffer (PBS). The culture supernatants and the rinsing solutions were combined in tubes. A solution of unlabeled dermatan sulfate (200 μg) was then added in order to serve as an entraining agent. The unincorporated ^35S was then removed by gel filtration on Sephadex G25 columns, the GAGs being eluted in the column exclusion fraction (V0). […] After centrifugation, the alcoholic precipitates were redissolved in 0.9% sodium chloride and then the radioactivity was measured on an aliquot fraction after addition of scintillation fluid in counting vials.
In order to type the GAGs produced in the supernatants from cells in culture, the redissolved alcoholic precipitates were treated with chondroitinase ABC (Proteus vulgaris) in a proportion of 0.5 mU/μL, for 3 h at 37° C. […] After centrifugation, the alcoholic precipitates were redissolved in 0.9% sodium chloride and then the radioactivity was measured on an aliquot fraction after addition of scintillation fluid in counting vials. […]

[6] = tested on: GM00031 fibroblast cells, isolated from an unaffected donor; assay: Intracellular chondroitin sulfate content (immunofluorescence) in control fibroblasts; type: cell-based, human; conditions: 72 h
Protocol: as §3

[7] = tested on: Normal human dermal fibroblasts (BIOAlternatives PF2); assay: Total GAG synthesis (3H-glucosamine incorporation) by normal human dermal fibroblasts; type: cell-based; conditions: 10 μM, 72 h
Protocol: Normal human dermal fibroblasts (BIOAlternatives PF2) were cultured in 96-well plates for 24 h. The culture medium was then replaced with culture medium containing or not containing (control) odiparcil at various concentrations (1 μM, 3 μM, 10 μM) or the TGF-β reference at 10 ng/ml (positive control), and then the cells were incubated for 72 h with addition of the ^3H-glucosamine radioactive label for evaluating total GAG synthesis. At the end of the incubation, a chaotropic buffer was added to the wells of the culture plates in order to lyse the fibroblasts. The total GAGs of the cell lysates were then purified by ion exchange chromatography (Q-Sepharose column). The radioactivity incorporated into the anionic fractions was measured by liquid scintillation.

[8] = tested on: GM03181 and GM00615 fibroblasts isolated from two MPS II patients; assay: CS, DS and HS content by UPLC MSMS in MPS II fibroblasts; type: cell-based, human; conditions: 10 μM, 72 h, FIG. 4
Protocol: as §2

[9] = tilorone 50 mg/kg/day via drinking water, vs vehicle/vehicle

CCN(CC)CCOc1ccc2c(c1)C(=O)c1cc(OCCN(CC)CC)ccc1-2 [Tilorone, reference compound]
GAG levels in the liver (male C57B16/J mice [1]; [9]): increased | GAG levels in urine (male C57B16/J mice [2]; [9]): increased

Cc1cc(=O)oc2cc(O[C@@H]3SC[C@@H](O)[C@H](O)[C@H]3O)ccc12 [Odiparcil, 4-methyl-2-oxo-2H-1-benzopyran-7-yl-5-thio-β-D-xylopyranoside]
statistical significance of effect on total GAG liver content vs tilorone/vehicle (male C57B16/J mice [1]; odiparcil 100 mg/kg/day, p<0.05): statistically significant | tilorone-induced accumulation of liver total GAG levels (male C57B16/J mice [1]; odiparcil 30 or 100 mg/kg/day oral gavage with tilorone, end of study, FIG. 6): decreased | Δdi-0S (%) nonsulfated disaccharides (New Zealand Rabbits; rabbit plasma GAGs, 4 h): 18.6% | Δdi-4S (%) 4-sulfated disaccharides (New Zealand Rabbits; rabbit plasma GAGs, 4 h): 26% | Δdi-4S DS (%) 4-sulfated disaccharides (dermatan sulfate component) (New Zealand Rabbits; rabbit plasma GAGs, 4 h): 20.5% | Δdi-6S (%) 6-sulfated disaccharides (galactosamine-6-sulfate component) (New Zealand Rabbits; rabbit plasma GAGs, 4 h): 30.8% | Δdi-UA2S (%) 2UA-sulfated disaccharides (New Zealand Rabbits; rabbit plasma GAGs, 4 h): 4.1% | factor of increase of plasma GAG level compared with control animals (New Zealand Rabbits; rabbit, 4 h): 5 | μg UA/ml plasma (plasma GAG level via uronic acid content) (New Zealand Rabbits; rabbit, 4 h after administration): 11.4 μg UA/ml | chondroitin sulfate (CS) content [3]: inhibited | dermatan sulfate (DS) content [3]: inhibited | heparan sulfate (HS) content [3]: inhibited | intracellular chondroitin sulfate (CS) content ([4]; 0.03-10 μM, FIG. 3): inhibited, in a dose-dependent manner | IC50 for reduction of intracellular CS [4]: in the μM range | extent of reduction of intracellular CS [4]: complete reduction | type of GAGs synthesized by the cells in culture (enzymatic digestions) ([5]; chondroitinase ABC / heparinase II digestion): predominantly of chondroitin sulfate type | level of 35S-labeled GAGs in the culture supernatant ([5]; odiparcil 1-10 μM, 24 h, FIG. 1): increases, in a dose-dependent manner | statistical significance of effect on urinary sulfated GAG levels vs tilorone/vehicle (male C57B16/J mice [2]; odiparcil 30 and 100 mg/kg/day, p<0.001): statistically significant at both tested doses | sulfated GAG levels in urine (normalized by creatinine) (male C57B16/J mice [2]; odiparcil 30 or 100 mg/kg/day oral gavage with tilorone, urine after 21 days, FIG. 5): increased sulfated GAG levels in urine in a dose-dependent manner | intracellular chondroitin sulfate (CS) content ([6]; 0.03-10 μM, FIG. 3): inhibited, in a dose-dependent manner | IC50 for reduction of intracellular CS [6]: in the μM range | extent of reduction of intracellular CS [6]: complete reduction | total GAG synthesis (dose dependence) ([7]; 1 μM, 3 μM, FIG. 2): stimulates, in a dose-dependent manner | stimulation of total GAG synthesis vs control [7]: +94% | chondroitin sulfate (CS) content [8]: inhibited | dermatan sulfate (DS) content [8]: inhibited | heparan sulfate (HS) content [8]: inhibited
